Structures are written as SMILES. Like-named read-outs stand apart in the source and are kept apart here.

One may read the IC50 as the point on the concentration scale where inhibition reaches its midpoint.

The test relates to A549 cells. Kind of test: MTS assay, proliferation of A549 cells. Format: cell-based, human. To be noted: for proliferation of A549 cells: statement on Table 1; for IC50: read-out: IC50, anticancer activity against lung cancer. As for the experimental part: Experimental procedure for MTS assay. To determine the efficacy of the compounds to cancer cells, a 3-(4,5-dimethylthiazol-2-yl)-5-(3-carboxymethoxyphenyl)-2-(4- sulfophenyl)-2H-tetrazolium inner salt (MTS) assay was used. A549 cells (ATCC, Manassas, Va.), representing a human lung carcinoma cell line, were plated on flat-bottomed 96-well plates in the presence of various concentrations of each compound. After incubation for up to 48 h at 37° C., the percentage of cell proliferation was determined with the MTS assay (Promega CellTiter 96 Aqueous Assay. Madison, Wis.), following the manufacturer's instruction.
For orientation: Tetrazolium dyes change colour on reduction, which living cells bring about.

The mark [1] stands for this setting: A549 human lung carcinoma cells, MTS assay, incubation up to 48 h at 37° C.

For the compound `CC1=C2C[C@H]3[C@@H](CC=C4C[C@@H](O)CC[C@@]43C)[C@@H]2CC[C@]12O[C@@H]1C[C@H](C)CN(Cc3cn(C4OC(C)[C@H](O)C(O)[C@@H]4O)nn3)[C@H]1[C@H]2C` (stereo partly drawn) [Example 3f, N-(1-(α-L-Rhamnopyranosyl)-1H-1,2,3-triazol-4-yl)methylcyclopamine], under “A549 cells, MTS assay, comparison with cyclopamine”, the “proliferation of A549 cells compared with cyclopamine” value is “reduced the proliferation of A549 cells more than cyclopamine”. Further, the “proliferation of A549 cells” value (A549 cells, MTS assay) is given as “reduced the proliferation of A549 cells”. Besides, the IC50 under setting [1] was 33 µM.

On to `CC1=C2C[C@H]3[C@@H](CC=C4C[C@@H](O)CC[C@@]43C)[C@@H]2CC[C@]12O[C@@H]1C[C@H](C)CN(Cc3cn([C@@H]4OC(CO)[C@@H](O)C(O)C4O)nn3)[C@H]1[C@H]2C` (stereo partly drawn) [Example 3a, N-(1-(β-D-Glucopyranosyl)-1H-1,2,3-triazol-4-yl)methylcyclopamine], for which the “proliferation of A549 cells” value (A549 cells, MTS assay) is on record as “reduced the proliferation of A549 cells”. For the same compound, the 50% inhibitory concentration (IC50) under setting [1] turned out to be 144 µM.

In the case of `CC1=C2C[C@H]3[C@@H](CC=C4C[C@@H](O)CC[C@@]43C)[C@@H]2CC[C@]12O[C@@H]1C[C@H](C)CN(Cc3cn([C@@H]4OC(CO)[C@@H](O[C@@H]5OC(CO)[C@H](O)C(O)C5O)C(O)C4O)nn3)[C@H]1[C@H]2C` (stereo partly drawn) [Example 3d, N-(1-(4-O-(β-D-Galactopyranosyl)-β-D-glucopyranosyl)-1H-1,2,3-triazol-4-yl)methylcyclopamine], the “proliferation of A549 cells” value (A549 cells, MTS assay) was “reduced the proliferation of A549 cells”. Where the note is “Homo sapiens, A549, 48 h”, the concentration for half-maximal inhibition (IC50) amounted to 183 µM.

On to `CC1=C2C[C@H]3[C@@H](CC=C4C[C@@H](O)CC[C@@]43C)[C@@H]2CC[C@]12O[C@@H]1C[C@H](C)CN(Cc3cn([C@@H]4OC(CO)[C@@H](O[C@@H]5OC(CO)[C@@H](O[C@@H]6OC(CO)[C@@H](O)C(O)C6O)C(O)C5O)C(O)C4O)nn3)[C@H]1[C@H]2C` (stereo partly shown) [Example 3k], for which, under “A549 cells, MTS assay”, the “proliferation of A549 cells” value is reported as “reduced the proliferation of A549 cells”. Further, the IC50 under setting [1] came to 96 µM.

Turning to `CC1=C2C[C@H]3[C@@H](CC=C4C[C@@H](O)CC[C@@]43C)[C@@H]2CC[C@]12O[C@@H]1C[C@H](C)CN[C@H]1[C@H]2C` [cyclopamine], the IC50 (Homo sapiens, A549, 48 h) was 49 µM.

For the origin of these results see patent US20110275576A1, “Carbohydrate-Cyclopamine Conjugates as Anticancer Agents” (Utah State University, priority 2009, published 2011).
